The record followed here is patent EP0077430B1, “A pharmaceutical composition for enhancing keratinogenesis and reducing facial and scalp seborrhea” (Mavi S.r.l., priority 1981, dated 1983).

Assay type in all cases: in vivo, Whistar rats
Experiment [1] concerns normal rats, not subjected previously to a biotin poor diet. The experiment in a line: Experimental test 2, lot II: composition of hair keratin of normal rats fed an enriched diet. The conditions noted are these: 150 days of treatment. The source says: (§1) The elective stimulating action has also been verified on rats, performed especially by the gelatin cystine, in the keratinization processes of the hairy structures, verifying the average content of sulphur and cystine of the hair of rats kept on a normal diet and respectively of rats kept on a biotin poor diet, fed respectively only gelatin, only cystine and the association of gelatin-cystine both in the form of mechanical mixture in hard capsules, and in the form melted in soft spherules.
(§2) 110 Whistar rats of both sexes were employed (55 males plus 55 females) of the average weight of 150 g±9, divided in two lots of respectively 60 (lot I) and 50 (lot II) rats each. Following the Kalopissis and Manoussos methodology already quoted in test 1, 50 rats of lot I were kept on a biotin poor diet for about 40 days until the appearance of an evident seborrhoic clinical condition was induced, while the remaining 10 served as controls. After having obtained the desired clinical condition with the appearance of seborrhoea and loss of hair in several zones, the 60 rats were divided into six groups of 10 rats each and treated as follows:
The 50 rats of the second lot (normal rats, not subjected previously to a biotin poor diet), divided into five groups of 10 rats each, have been fed respectively:
The quantity of the feed placed in the cages was calculated in such a way that the rats would ingest the same quantity per kg of cystin, FU gelatin or gelatin-cystine already described above.
After 150 days of treatment the rats, under ether anaesthesia, were partially depilated with a razor.
(§3) A part of the hair (about 100 mg) of all the animals of the two groups, thoroughly washed with alcohol and ethyl ether and dried, are used for the determination of the total sulphur carried out by means of titration, according to the previously mentioned McDonald methodology.
(§4) After having hydrolyzed the hair of all the animals (about 800 mg) previously washed as already described, the quantity of cystine was determined using an autoanalyzer.
(§5) The extraction of the total keratins of the hairs was carried out using the urea-thioglycolate method as described in Gillespie J. M., Reis P. J. and Schinckel P. G. (1964) Aust. J. Biol. Sci. 17, 548.
(§6) After determining from one portion the total keratin (total proteins), the keratin fraction of high sulphur content is separated through alkylation with iodo acetate, dialysis and precipitation of the protein of low sulphur content with zinc acetate at pH 6. The total sulphur was determined on the protein fraction "rich in sulphur" according to the already mentioned McDonald methodology.

The subject of a further experiment is biotin poor rats. Put plainly: Experimental test 2, lot I: composition of hair keratin (sulphur, cystine, proteins) of biotin poor rats.
From the text: as §1, §2
The diets prepared specifically by a specialized firm were administered weekly in the cages of the rats, in accurately weighed quantity so that the rats, kept in single cages, would ingest together with the feed, respectively:
After six weeks of treatment and after having taken about 1 gof hair per rat, all the animals included the controls were sacrificed in a chloroform saturated atmosphere.
as §3, §4, §5, §6

For experiment [2], the system named is rats kept on a biotin poor diet. Put plainly: Experimental test 1: skin total lipids and hair sulphur content of rats on a biotin free diet with additives. The source says: According to the invention in fact the intimate distribution of the cystine within the mass of "soft" gelatin ensures a particularly favorable oral absorption, so that it is possible to reduce the doses of active substances with respect to the doses established by the prior art for the indicated pharmaceutical use. […] It is in fact known that the alimentary insufficiency of biotin induces, in the rat, the formation of a seborrhoic clinical condition, characterized by the increase of the sebaceous secretion and by the fall of hair.
In order to have a direct comparison, said rats have been successively treated, in different lots, -with diets to which was added respectively gelatin, cystine, gelatin-cystine in mechanical mixture and gelatin-cystine in soft spherules.
60 Whistar rats were employed of both sexes (30 males and 30 females) of the average weight of 150 g±9. Following the Kalopissis et al methodology (U.S. patent No. 3629452) 50 rats were kept on a biotin free diet for about 40 days until an evident seborrhoic clinical condition had developed, while the remaining 10 served as controls. After obtaining the desired clinical condition with the development of seborrhoea and loss of hair in various zones, the 50 rats were subdivided into five groups of 10 rats each and treated as follows: • 1st group: biotin free diet added with cystine; • 2nd group: biotin free diet added with gelatin; • 3rd group: biotin free diet added with cystine and gelatin in mechanical mixture; • 4th group: biotin free diet added with the mixture of gelatin/cystine melted in soft spherules; • 5th group: biotin free diet; • 6th group: control.
The diets were administered weekly in the cages of the rats in accurately weighed quantity so that the rats, kept in single cages, would ingest together with the feed, respectively: • 1st group: 84 mg per kg a week of cystine; • 2nd group: 203 mg per kg a week of gelatin from collagen; • 3rd group: 84 mg per kg a week of cystine and 203 mg per kg a week of gelatin; • 4th group: 280 mg per kg a week of the melted mixture of gelatin/cystine comprising 79.8 mg of cystine and 200.2 mg of gelatin.
After three weeks of treatment and after taking about 200 mg of hairs per rat, all the animals, included the controls, were sacrificed in a chloroform saturated environment in order to control their skin total lipids and in order to carry out possible histological and bioptic examinations. […]
The content of the total lipids was determined gravimetrically by the difference in weight of the sample before and after the extraction in a Soxhlet with acetone for 10 days and further drying out in vacuum over P205 and paraffin for 24 hours.

The mark [3] stands for this setting: hair of biotin poor rats, six weeks of treatment.
The mark [4] stands for this setting: in the biotin-poor rats, oral, P<0.05.

`N[C@@H](CSSC[C@H](N)C(=O)O)C(=O)O` [Levo-cystine]: in experiment [1], the “"Sulphur rich" keratin %” value worked out at 25.9±0.5° %, the Cystine content % is 13.8±0.6° %, the “Sulphur contained in the "sulphur rich keratin" %” value was found to be 5.1±0.2° % and the Sulphur content % worked out at 3.6±0.1° %. In addition, in the experiment with biotin poor rats (setting [3]), the “"Sulphur rich" proteic fraction %” value is reported as 20±1%; the “Sulphur contained in the "sulphur rich" proteic fraction, %” value stood at 3.9±0.05%; the Sulphur content % is 2.48±0.07° %. In addition, the Cystine content % in the experiment on biotin poor rats (hair of biotin poor rats, six weeks of treatment, g/100 g of hairs, autoanalyzer after hydrolysis) is 9.3±0.6%. In the experiment with biotin poor rats (total keratins of hair, urea-thioglycolate extraction, biotin poor rats, six weeks), this compound displayed a Total proteins % of 90±1%. In experiment [2] (dorsal skin, gravimetric after acetone extraction, biotin poor diet plus additive, three weeks of treatment, °=P<0.05 versus group VI (controls)), the Total lipides % was found to be 38.1±2.987° %. For the same compound, in experiment [2] (setting [4]), the “increase of the total sulphur of the hair” value is given as “about 7%” and the “reduction of the total lipids of the skin” value is “about 15%”. Besides, in experiment [2] (total sulphur by titration, percentage of dried weight of hair, biotin poor diet plus additive, three weeks of treatment), the “Sulphur content (×g hair, %)” value is given as 2.48±0.066° %.
